In assay [1] the test system is Meloidogyne incognita. Nature of the assay: In vitro test on M. incognita eggs (egg hatching, petri dishes). As to conditions: tested concentration 5%.
For assay [2], the system named is Halyomorpha halys. Nature of the assay: Laboratory tests on heteroptera. Format: in vivo.
The subject of assay [3] is Anacridium aegyptium. Nature of the assay: Laboratory tests on orthoptera. Type of assay: in vivo.

In the case of `Nc1ncnc2c1ncn2[C@@H]1O[C@H](CO)C[C@H]1O` [9-(3-Deoxy-β-D-ribofuranosyl)adenine], in assay [1], the “action on free larvae included in the ovisacs” value is “good action” and the “effect on egg embryogenesis” value is “inhibition of egg embryogenesis”. The “effect on adult forms of heteroptera (Halyomorpha halys)” value in assay [2] is recorded as “no significant effect”. For the same compound, the “effect on adult forms of orthoptera (Anacridium aegyptium)” value in assay [3] is “no significant effect”.
